# Test results: patent publication US7332479B2, “Extracellular NAD+ and cADPR as potent anti-inflammatory agents” (University of Pittsburgh - of the Commonwealth System of …, priority 2003, dated 2008)
# Assays:
# [1] = tested on: occludin and ZO-1 in Caco-2 cells; assay: ZO-1 and occludin in NP-40-insoluble fraction, immunoprecipitation and Western blot, Caco-2 cells exposed to cytomix; assay type: cell-based, human
# [2] = tested on: Caco-2 human enterocyte-like cells; assay: Paracellular permeability of Caco-2 monolayers, apical-to-basolateral clearance of FD4, cytomix; assay type: cell-based
# Description: Cell Culture. Caco-2 human enterocyte-like cells were routinely maintained at 37° C. in DMEM with 10% FBS, as described by Han et al. ^9 All cells were fed by changing the cell culture medium twice per week. For experiments, cells were grown on Transwell inserts (0.4 μm pore size; Corning Costar Corp., Cambridge, Mass.) and used 14-17 days post-confluence. […] Caco-2 monolayers growing on permeable supports were left untreated or exposed to cytomix for 24 or 48 h in the absence or presence of graded concentrations of NAD^+ or adenosine. Paracellular permeability was determined by measuring the apical-to-basolateral flux of FD4. Epithelial permeability was unaffected when monolayers were incubated with NAD^+ alone. Exposing Caco-2 cells to cytomix increased the clearance of FD4 across the monolayers (FIG. 1A). Addition of NAD^+ ameliorated cytomix-induced epithelial hyperpermeability in a concentration-dependent manner. […] NAD^+ is structurally related to a nucleoside, adenosine, that is known to exert anti-inflammatory effects by binding to certain purinergic receptors;^24 accordingly, the possibility that activation of a receptor for adenosine was responsible for the amelioration of cytokine-induced hyperpermeability by NAD^+ was considered. To investigate this idea, Caco-2 monolayers were exposed to cytomix in the absence or presence of 10 μmol/L adenosine (FIG. 1A).
# TNF-α = assay: LPS-induced TNF-α release from RAW cells, ELISA; assay type: cell-based, mouse; settings: 1 μM
# Description: Whether NAD^+ could prevent the production of tumor necrosis factor α (TNF-α), a potent proinflammatory cytokine produced by activated monocytes and macrophages, was tested. Supernatants were collected from RAW cells treated with LPS in the absence or presence of NAD^+. TNF-α levels were quantitated by ELISA.
# [3] = tested on: mice challenged with a lethal dose of Escherichia coli O111:B4 LPS; assay: LPS-induced mortality in mice; assay type: in vivo; settings: LPS 17 mg/kg; intravenous and intraperitoneal, 1 mg/kg pre-treatment then 1 mg/kg every 6 h for five more doses
# [4] = tested on: inducible nitric oxide synthase (iNOS) mRNA; assay: iNOS mRNA expression by RT-PCR in Caco-2 cells exposed to cytomix; assay type: cell-based, human; settings: biphasic response
# Description: (§1) Measurement of NO. production and iNOS gene expression. NO. production^21 was measured and RT-PCR ^22 for iNOS mRNA and 18S RNA were performed as described. The gels were captured using an imaging workstation (NucleoVision), and quantified with GelExpert™ 3.5. Relative expression of iNOS is reported after normalizing for 18S loading in FIG. 4B.
# (§2) Accordingly, it was determined whether NAD^+ decreased the production of NO. (as assessed by measuring NO2^− and NO3^− in culture supernatants) by Caco-2 cells exposed to cytomix (similar study using RAW monocyte-like cells is not shown). […] Again, there was a biphasic response to NAD^+ treatment; provided maximal inhibition and higher doses inhibited less well. Thus, another inflammatory response, namely the induction of iNOS gene expression and the concomitant production of NO., is blocked by extracellular NAD^+ in both myeloid and epithelial cells.
# Caco-2 cells = assay: Immunofluorescence microscopy of ZO-1 and occludin localization in Caco-2 cells exposed to cytomix; assay type: cell-based, human; settings: cytomix 48 h, 10 μmol/L added at 0 and 24 h
# Description: Immunofluorescence. All procedures were performed at 0-4° C. as described.^9 Caco-2 cells growing on 24 well clear Transwell inserts were fixed and stained with a mouse anti-ZO-1 monoclonal antibody (mAb; BD Translabs, Franklin Lakes, N.J.) and rabbit an anti-occludin polyclonal antibody diluted 1:100. The secondary antibodies were 5 μg/mL FITC-conjugated affinity-purified donkey anti-mouse IgG and 15 μg/mL TRITC-conjugated affinity-purified goat anti-rabbit IgG (Jackson ImmunoResearch Laboratories).
# Immunofluorescence microscopy was used to assess the structure of TJs in Caco-2 cells grown on Transwells. The cells were either left untreated (FIG. 3; Panel CON) or exposed to cytomix for 48 h in the absence (Panel C48) or presence (Panel N10) of extracellular NAD^+ (10 μmol/L added at 0 and 24 h). The cells were permeabilized, fixed, and stained using FITC- and TRITC-conjugated antibodies directed against ZO-1 and occludin, respectively. In control confluent Caco-2 monolayers, these proteins both were predominantly localized to regions near cell-cell boundaries. Staining was even and continuous. Following treatment with cytomix, dispersed lesions appeared throughout the monolayer, in which immunostaining for ZO-1 at cell boundaries became faint, diffuse, and discontinuous. Exposure to cytomix also was associated with “ruffling” of ZO-1 and occludin immunostaining. […]
# NF-κB [5] = assay: Nuclear NF-κB levels by electrophoretic mobility shift assay, LPS-stimulated RAW 264.7 cells; assay type: cell-based, mouse; settings: 10 ng/ml LPS, 15 min
# Description: Additional studies were performed to show the potent anti-inflammatory capacity of extracellular NAD^+. RAW 264.7 cells in tissue culture dishes were stimulated with LPS prepared from Escherichia coli strain 011:B4, and the activation of NF-κB was measured. Some cells were exposed to 10 ng/ml LPS in the presence of 1-100 μM NAD. Nuclear proteins were extracted from the cells 15 min after exposure to the compounds, and NF-κB levels were determined using the electrophoretic mobility shift assay.
# Thus, very low doses of extracellular NAD^+ can effectively block the activation of NF-κB, an important transcription factor mobilized during an inflammatory response.
# NF-κB [6] = assay: NF-κB DNA binding by electrophoretic mobility shift assay, Caco-2 cells exposed to cytomix; assay type: cell-based, human
# Description: Electrophoretic mobility shift assay (EMSA). Nuclear extracts were prepared and analyzed as described.^23 However, 38.3 μL of 10% NP-40 was used to lyse the cells, the nuclei were isolated by centrifugation at 310 g for 3 min, and the nuclear pellets were resuspended in 80 μL of Buffer II.
# iNOS induction is dependent, in part, on activation of the transcription factor NF-κB, a transcription factor that is required for a variety of monocyte inflammatory responses, e.g., to LPS. Therefore, we tested the ability of NAD^+ to inhibit DNA binding by NF-κB in Caco-2 cells exposed to cytomix. […] NAD^+ alone had no effect on the nuclear levels of NF-κB.
# [7] = tested on: NO. production by Caco-2 cells; assay: NO. production (NO2- and NO3- in culture supernatants) by Caco-2 cells exposed to cytomix; assay type: cell-based, human
# Description: as §1, §2
# mouse ileal mucosa = assay: Ileal mucosal permeability to FD4 (ex vivo everted gut sac) in LPS-injected mice; settings: LPS 17 mg/kg IP, two 132 mg/kg doses (IV then IP 12 h later), ileum at 18 h
# Description: Animals. This research complied with regulations regarding animal care as published by the National Institutes of Health and was approved by the Institutional Animal Use and Care Committee of the University of Pittsburgh. Male 7-8 week old C57Bl/6J mice weighing 20-25 g were from Jackson Laboratories (Bar Harbor, Me.). To induce a systemic inflammatory response, mice were injected intraperitoneally (IP) with Escherichia coli (strain O111:B4) LPS (17 mg/kg) dissolved in 1.0 ml of PBS. Control animals were injected with a similar volume of PBS. Some mice were treated with an intravenous (IV) injection (100 μL) of either PBS or 132 mg/kg NAD^+ in PBS given 5 min before LPS or PBS injection, and this injection was repeated IP 12 h later. Groups of mice were anesthetized with 60-90 mg/kg sodium pentobarbital 18 h after the first injection with PBS or LPS. Segments of ileum were harvested to assess mucosal permeability to FD4 using an ex vivo everted gut sac method as previously described.^20
# In the setting of systemic inflammation, circulating blood monocytes often encounter lipopolysaccharide (LPS), a potent inflammatory molecule derived from the outer surface of Gram-negative bacteria. […]
compound,measurement,setting,value
Nc1ncnc2c1ncn2[C@@H]1O[C@H](COP(=O)(O)OP(=O)(O)OC[C@H]2OC(O)[C@H](O)[C@@H]2O)[C@@H](O)[C@H]1O (some centres unmarked) [ADP-ribose],expression of occludin,"[1]; cytomix, co-incubation with 10 or 100 μmol/L",failed to preserve occludin expression
"Nc1ncnc2c1ncn2[C@@H]1O[C@H](CO)[C@@H](O)[C@H]1O [Adenosine, adenosine, reference compound]",decrease in NP-40-insoluble occludin or ZO-1,[1]; cytomix 48 h with 10 μM,failed to prevent
same,induction of hyperpermeability by cytomix,[2]; 10 μmol/L,no effect
"NC(=O)c1ccc[n+]([C@@H]2O[C@H](COP(=O)([O-])OP(=O)(O)OC[C@H]3O[C@@H](n4cnc5c(N)ncnc54)[C@H](O)[C@@H]3O)[C@@H](O)[C@H]2O)c1 [NAD^+, nicotinamide adenine dinucleotide]",LPS-induced release of TNF-α,TNF-α,partially blocked
same,mortality,[3],completely prevented mortality
same,cytomix-increased expression of iNOS mRNA,[4],blocked this effect
same,staining of ZO-1 and occludin at cell-cell boundaries,Caco-2 cells,continuous staining
same,nuclear localization of NF-κB,NF-κB [5]; 1 μM,dramatically decreased
same,nuclear NF-κB levels,NF-κB [5]; 100 μM,near baseline levels
same,cytomix-induced NF-κB activation,"NF-κB [6]; 1 μmol/L, nuclear extracts 4 h",no effect
same,nuclear levels of NF-κB,"NF-κB [6]; NAD+ alone, no cytomix",no effect
same,NF-κB DNA binding,"NF-κB [6]; cytomix, 10 or 100 μmol/L, nuclear extracts 4 h",clearly decreased
same,occludin and ZO-1 in NP-40-insoluble complexes,[1]; cytomix 48 h with 10 or 100 μmol/L,normal levels of these proteins were present
same,concentration giving maximal inhibition of NO. production,[7]; cytomix,100 µmol/L
same,inhibition of NO. production,"[7]; cytomix, 1000 μmol/L compared with 100 μmol/L",inhibition was decreased
same,cytomix-increased production of NO.,[7]; graded concentrations,inhibited in a concentration-dependent manner
same,increase in mucosal permeability to FD4 induced by LPS,mouse ileal mucosa,significantly ameliorated
same,protection against cytomix-induced hyperpermeability,[2]; 10 and 100 μmol/L,statistically significant
same,cytomix-induced epithelial hyperpermeability,"[2]; cytomix 24 or 48 h, graded concentrations, concentration-dependent",ameliorated
same,Epithelial permeability (FD4 flux),"[2]; monolayers incubated with NAD+ alone, no cytomix",unaffected
